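Compound exposure: 48 hours, 5 concentrations, 96-well plates. GI50: concentration for 50% inhibition of growth. TGI is the concentration that stops growth completely.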
Assays:
Test in all cases: DTP human tumour cell line panel, 48 h
786-0 renal = tested on: 786-0 renal
A498 renal = tested on: A498 renal
A549 NSCLC = tested on: A549 NSCLC
ACHN renal = tested on: ACHN renal
BT-549 breast = tested on: BT-549 breast
CAKI-1 renal = tested on: CAKI-1 renal
CCRF-CEM leukemia = tested on: CCRF-CEM leukemia
COLO 205 colon = tested on: COLO 205 colon
DU-145 prostate = tested on: DU-145 prostate
HCC-2998 colon = tested on: HCC-2998 colon
HCT-116 colon = tested on: HCT-116 colon
HCT-15 colon = tested on: HCT-15 colon
HL-60(TB) leukemia = tested on: HL-60(TB) leukemia
HOP-62 NSCLC = tested on: HOP-62 NSCLC
HOP-92 NSCLC = tested on: HOP-92 NSCLC
HS 578T breast = tested on: HS 578T breast
HT29 colon = tested on: HT29 colon
IGROV1 ovarian = tested on: IGROV1 ovarian
K-562 leukemia = tested on: K-562 leukemia
KM12 colon = tested on: KM12 colon
LOX IMVI melanoma = tested on: LOX IMVI melanoma
M14 melanoma = tested on: M14 melanoma
MALME-3M melanoma = tested on: MALME-3M melanoma
MCF7 breast = tested on: MCF7 breast
MDA-MB-231 breast = tested on: MDA-MB-231 breast
MDA-MB-435 = tested on: MDA-MB-435
MOLT-4 leukemia = tested on: MOLT-4 leukemia
NCI-H226 lung = tested on: NCI-H226 lung
NCI-H23 lung = tested on: NCI-H23 lung
NCI-H460 lung = tested on: NCI-H460 lung
NCI-H522 lung = tested on: NCI-H522 lung
NCI/ADR-RES ovarian = tested on: NCI/ADR-RES ovarian
OVCAR-3 ovarian = tested on: OVCAR-3 ovarian
OVCAR-4 ovarian = tested on: OVCAR-4 ovarian
OVCAR-5 ovarian = tested on: OVCAR-5 ovarian
OVCAR-8 ovarian = tested on: OVCAR-8 ovarian
PC-3 prostate = tested on: PC-3 prostate
RPMI-8226 leukemia = tested on: RPMI-8226 leukemia
RXF 393 renal = tested on: RXF 393 renal
SF-268 CNS = tested on: SF-268 CNS
SF-295 CNS = tested on: SF-295 CNS
SF-539 CNS = tested on: SF-539 CNS
SK-MEL-2 melanoma = tested on: SK-MEL-2 melanoma
SK-MEL-28 melanoma = tested on: SK-MEL-28 melanoma
SK-MEL-5 melanoma = tested on: SK-MEL-5 melanoma
SK-OV-3 ovarian = tested on: SK-OV-3 ovarian
SN12C renal = tested on: SN12C renal
SNB-19 CNS = tested on: SNB-19 CNS
SNB-75 CNS = tested on: SNB-75 CNS
SR leukemia = tested on: SR leukemia
SW-620 colon = tested on: SW-620 colon
T-47D breast = tested on: T-47D breast
TK-10 renal = tested on: TK-10 renal
U251 CNS = tested on: U251 CNS
UACC-257 melanoma = tested on: UACC-257 melanoma
UACC-62 melanoma = tested on: UACC-62 melanoma
UO-31 renal = tested on: UO-31 renal

SMILES: COc1ccc(-c2c(-c3cc(OC)c(OC)c(OC)c3)nc3sc(C4CC4)nn23)cc1OC
- GI50 (786-0 renal): 4.66 µM
- TGI (786-0 renal): > 100 µM
- GI50 (A498 renal): 0.75 µM
- TGI (A498 renal): 7.84 µM
- GI50 (A549 NSCLC): 8.29 µM
- TGI (A549 NSCLC): > 100 µM
- GI50 (ACHN renal): 2.99 µM
- TGI (ACHN renal): 42.6 µM
- GI50 (BT-549 breast): 10.2 µM
- TGI (BT-549 breast): > 100 µM
- GI50 (CAKI-1 renal): 0.943 µM
- TGI (CAKI-1 renal): > 100 µM
- GI50 (CCRF-CEM leukemia): 7.81 µM
- TGI (CCRF-CEM leukemia): > 100 µM
- GI50 (COLO 205 colon): 3.11 µM
- TGI (COLO 205 colon): 20.2 µM
- GI50 (DU-145 prostate): 51.3 µM
- TGI (DU-145 prostate): > 100 µM
- GI50 (HCC-2998 colon): 12.3 µM
- TGI (HCC-2998 colon): > 100 µM
- GI50 (HCT-116 colon): 4.79 µM
- TGI (HCT-116 colon): > 100 µM
- GI50 (HCT-15 colon): 2.42 µM
- TGI (HCT-15 colon): 58.3 µM
- GI50 (HL-60(TB) leukemia): 1.68 µM
- TGI (HL-60(TB) leukemia): 41.6 µM
- GI50 (HOP-62 NSCLC): 1.58 µM
- TGI (HOP-62 NSCLC): > 100 µM
- GI50 (HOP-92 NSCLC): 0.58 µM
- TGI (HOP-92 NSCLC): 9 µM
- GI50 (HS 578T breast): 4.19 µM
- TGI (HS 578T breast): > 100 µM
- GI50 (HT29 colon): 3.48 µM
- TGI (HT29 colon): > 100 µM
- GI50 (IGROV1 ovarian): 5.28 µM
- TGI (IGROV1 ovarian): > 100 µM
- GI50 (K-562 leukemia): 10 µM
- TGI (K-562 leukemia): > 100 µM
- GI50 (KM12 colon): 17.5 µM
- TGI (KM12 colon): > 100 µM
- GI50 (LOX IMVI melanoma): 3.27 µM
- TGI (LOX IMVI melanoma): > 100 µM
- GI50 (M14 melanoma): 6.42 µM
- TGI (M14 melanoma): > 100 µM
- GI50 (MALME-3M melanoma): 18.1 µM
- TGI (MALME-3M melanoma): 75.2 µM
- GI50 (MCF7 breast): 1.96 µM
- TGI (MCF7 breast): > 100 µM
- GI50 (MDA-MB-231 breast): 2.72 µM
- TGI (MDA-MB-231 breast): > 100 µM
- GI50 (MDA-MB-435): 6.81 µM
- TGI (MDA-MB-435): > 100 µM
- GI50 (MOLT-4 leukemia): 9.94 µM
- TGI (MOLT-4 leukemia): 72 µM
- GI50 (NCI-H226 lung): 16.3 µM
- TGI (NCI-H226 lung): > 100 µM
- GI50 (NCI-H23 lung): 11.6 µM
- TGI (NCI-H23 lung): > 100 µM
- GI50 (NCI-H460 lung): 11.9 µM
- TGI (NCI-H460 lung): > 100 µM
- GI50 (NCI-H522 lung): 1.7 µM
- TGI (NCI-H522 lung): 40 µM
- GI50 (NCI/ADR-RES ovarian): 7.35 µM
- TGI (NCI/ADR-RES ovarian): > 100 µM
- GI50 (OVCAR-3 ovarian): 7.11 µM
- TGI (OVCAR-3 ovarian): > 100 µM
- GI50 (OVCAR-4 ovarian): 3.26 µM
- TGI (OVCAR-4 ovarian): > 100 µM
- GI50 (OVCAR-5 ovarian): 6.18 µM
- TGI (OVCAR-5 ovarian): > 100 µM
- GI50 (OVCAR-8 ovarian): 6.13 µM
- TGI (OVCAR-8 ovarian): > 100 µM
- GI50 (PC-3 prostate): 9.66 µM
- TGI (PC-3 prostate): > 100 µM
- GI50 (RPMI-8226 leukemia): 3 µM
- TGI (RPMI-8226 leukemia): 19.6 µM
- GI50 (RXF 393 renal): 5.46 µM
- TGI (RXF 393 renal): 43 µM
- GI50 (SF-268 CNS): 32.8 µM
- TGI (SF-268 CNS): > 100 µM
- GI50 (SF-295 CNS): 6.11 µM
- TGI (SF-295 CNS): > 100 µM
- GI50 (SF-539 CNS): 5.62 µM
- TGI (SF-539 CNS): > 100 µM
- GI50 (SK-MEL-2 melanoma): 7.52 µM
- TGI (SK-MEL-2 melanoma): 50.8 µM
- GI50 (SK-MEL-28 melanoma): 5.83 µM
- TGI (SK-MEL-28 melanoma): > 100 µM
- GI50 (SK-MEL-5 melanoma): 2.39 µM
- TGI (SK-MEL-5 melanoma): 15 µM
- GI50 (SK-OV-3 ovarian): 2.9 µM
- TGI (SK-OV-3 ovarian): 69 µM
- GI50 (SN12C renal): 10.7 µM
- TGI (SN12C renal): > 100 µM
- GI50 (SNB-19 CNS): 9.04 µM
- TGI (SNB-19 CNS): > 100 µM
- GI50 (SNB-75 CNS): 0.641 µM
- TGI (SNB-75 CNS): > 100 µM
- GI50 (SR leukemia): 3.73 µM
- TGI (SR leukemia): > 100 µM
- GI50 (SW-620 colon): 13.2 µM
- TGI (SW-620 colon): > 100 µM
- GI50 (T-47D breast): 1.51 µM
- TGI (T-47D breast): 30.5 µM
- GI50 (TK-10 renal): 2.6 µM
- TGI (TK-10 renal): 37.3 µM
- GI50 (U251 CNS): 8.15 µM
- TGI (U251 CNS): > 100 µM
- GI50 (UACC-257 melanoma): 9.68 µM
- TGI (UACC-257 melanoma): > 100 µM
- GI50 (UACC-62 melanoma): 1.94 µM
- TGI (UACC-62 melanoma): 40.4 µM
- GI50 (UO-31 renal): 1.42 µM
- TGI (UO-31 renal): 90.5 µM
